This is an account of results in patent US11279726B2, “Norbornene-based amphipathic compound and utilization thereof” (Industry-University Cooperation Foundation Hanyang …, priority 2017, dated 2022).

Data set [1] deals with T1, uric acid-xanthine/H+ symporter (UapA) (Emericella nidulans, UniProt Q07307, G411V).
T1 construct: made in house; host or cells: Saccharomyces cerevisiae FGY217
Briefly: UapA extraction and thermal stability by fluorescence size exclusion chromatography (FSEC). On the set-up: species or system Aspergillus nidulans. The following applies: 1.0 wt % amphiphile, 10 minutes at 40° C.; compared with DDM. As for the experimental part: An experiment for measuring the structural stability of uric acid-xanthine/H+ symporter (UapA) isolated from Aspergillus nidulans using NBMs was performed. The structural stability of UapA was evaluated using […].
Specifically, UapAG411VΔ1-11 (hereinafter, referred to as “UapA”) was expressed as GFP fusion in Saccharomyces cerevisiae FGY217 strain and isolated in a sample buffer (20 mM Tris (pH 7.5), 150 mM NaCl, 0.03% DDM, 0.6 mM xanthine) according to the method described in the literature written by J. Leung et al. (Mol. Membr. Biol. 2013, 30, 32-42). Membranes containing UapA were resuspended in PBS, 10 mM imidazole pH 8.0, 150 mM NaCl, 10% glycerol, and the protein concentration was measured. The membranes were adjusted to a concentration of 1 mg·ml^−1 and 1 ml aliquots were individually incubated with DDM or NBMs at a final amphiphilic material concentration of 1.0 wt % for 10 minutes at 40° C. 100 μl aliquots were removed from each tube, and a fluorescence reading was taken for each sample before and after ultracentrifugation at 150,000 g for 10 minutes to remove insoluble material. The remaining soluble fraction for each condition was submitted to fluorescent size exclusion chromatography (FSEC) using a Superose 6 column (GE Healthcare) equilibrated with DDM.

Data set [2] in a line: Critical micelle concentration by fluorescent staining with diphenylhexatriene (DPH). Format: physicochemical. The following applies: aqueous solution. Here is the method: A method for measuring CMC is not particularly limited, and a method widely known in the art may be used, for example, by fluorescence staining with diphenylhexatriene (DPH).
(§1) To identify the characteristics of NBMs synthesized in Preparation Example 1 to 6 according to the synthetic method of Example 1, molecular weights (MWs) of NBMs, critical micelle concentrations (CMCs) and hydrodynamic radii (Rh) of the micelles were measured.
(§2) Specifically, the critical micelle concentrations (CMCs) were measured by fluorescent staining with diphenylhexatriene (DPH), and the hydrodynamic radii (Rh) of the micelle formed with individual agents (1.0 wt %) were measured by dynamic light scattering (DLS).

The nature of data set [3]: Hydrodynamic radius / size distribution of micelles by dynamic light scattering (DLS). It counts as physicochemical. The following applies: 1.0 wt % agent. As for the experimental part:
A method for measuring the radius of a micelle is not particularly limited, and a method well known in the art may be used, and for example, the radius thereof may be measured using a dynamic light scattering (DLS) experiment.
as §1, §2

Data set [4] has as its target T2, human β2 adrenergic receptor (β2AR) (Homo sapiens, UniProt P07550).
T2 construct: made in house
Briefly: β2AR stability: [3H]-DHA ligand binding activity of solubilized receptor. As for the experimental part: An experiment of measuring the stability of human β2 adrenergic receptor (β2AR) and G-protein-coupled receptor (GPCR) for NBMs was carried out. That is, the receptor was extracted from the cell membranes by DDM and purified in the same amphiphilic compound. The DDM-purified receptor was diluted in individual DDM- or NBM-containing buffers to adjust the final compound concentration to be CMC+0.2 wt %. The receptor stability was assessed by measuring ligand binding activity using [3H]-DHA.
To measure long-term stability of human β2AR with NBMs (D-NBM-C11 and X-NBM-C11) showing an excellent ligand binding activity of the receptor in the previous experiment, a radio-labeled ligand binding experiment was performed by the following method. β2AR was purified using 0.1% DDM (D. M. Rosenbaum et al., Science, 2007, 318, 1266-1273), and finally concentrated to approximately 10 mg/ml (approximately 200 μM). A main binding mixture containing 10 nM [^3H]-DHA supplemented with 0.5 mg/ml BSA was prepared in 0.2% amphiphilic compound (DDM or NBMs (D-NBM-C11 and X-NBM-C11)) using β2AR purified with DDM. The receptor purified with DDM or NBMs was incubated with 10 nM [^3H]-DHA at room temperature for 30 minutes. The mixture was loaded onto a G-50 column, the fractions were collected in a 1 ml binding buffer (20 mM HEPES pH 7.5, 100 mM NaCl, containing 0.5 mg/ml BSA and 20× CMC individual amphiphilic compounds). In addition, each fraction was supplemented with a 15 ml scintillation fluid, and receptor-bound [^3H]-DHA was measured using a scintillation counter (Beckman) at regular intervals for 3 days. The binding capacity of [^3H]-DHA was shown as a bar chart (FIG. 11a).
In addition, β2AR was extracted from the membrane using 1.0 wt % of DDM or X-NBM-C11 and purified at 0.2 wt % for the same individual amphiphilic compounds. Structural stability of the receptor was assessed by ligand binding activity, which was measured with sample aliquots at regular intervals during 7-day incubation at room temperature. Each experiment was carried out in triplicate (FIG. 12b).

In another data set the target is β2AR-Gs complex (Homo sapiens, UniProt P07550). Briefly: Negative stain EM analysis of β2AR-Gs complex. As for the experimental part:
A β2AR-Gs protein complex was prepared for electron microscopy using the conventional negative staining protocol, and imaged at room temperature with a Tecnai T12 electron microscope operated at 120 kV using low-dose procedures. Images were recorded at a magnification of 71,138× and a defocus value of approximately 1.4μ using a Gatan US4000 CCD camera. All images were binned (2×2 pixels) to obtain a pixel size of 4.16 A at the specimen level. Particles were manually excised using e2boxer (part of the EMAN2 software suite). 2D reference-free alignment and classification of particle projections were performed using ISAC. 14,556 projections of β2AR-Gs were subjected to ISAC, producing 199 classes consistent over two-way matching and accounting for 10,100 particle projections.

Data set [5] has as its target T3, Salmonella typhimurium melibiose permease (MelBSt) (Salmonella typhimurium, UniProt P30878).
T3 construct: made in house; host or cells: E. coli DW2 (ΔmelB, ΔlacZY)
Briefly: MelBSt extraction and thermostability (SDS-PAGE / western blotting). The following applies: 1.5 wt %. As for the experimental part:
An experiment of measuring structural stability of MelBSt (Salmonella typhimurium melibiose permease) protein with NBMs was carried out. The MelBSt protein was extracted from the membrane using NBMs or DDM, and the amounts and structure of the extracted proteins were analyzed by SDS-PAGE and western blotting. The concentration of the used amphiphilic compound was 1.5 wt %. The proteins were extracted at four temperatures (0, 45, 55, and 65° C.) and incubated at the same temperature for 90 minutes, and the amounts of the remaining proteins solubilized in an aqueous solution were measured, so as to simultaneously evaluate both performances of the compound such as protein extraction efficiency and stabilization activity. The amounts of the proteins extracted and stabilized by respective amphiphilic molecules were represented as relative values (%) to the amounts of total proteins contained in the membrane sample not treated with an amphiphilic molecule.
Specifically, Salmonella typhimurium melibiose permease (MelBSt) with a C-terminal 10-His tag was expressed in E. coli DW2 cells (^ΔmelB and ^ΔlacZY) using plasmid pK95^ΔAHB/WT MelBSt/CH10. Cell growth and membrane preparation were carried out according to the method described in the literature written by A. S. Ethayathulla et al. (Nat. Commun. 2014, 5, 3009). Protein assays were carried out with a Micro BCA kit (Thermo Scientific, Rockford, Ill.). The measurement of MelBSt stability was carried out on NBMs or DDM according to the protocol described by P. S. Chae et al. (Nat. Methods 2010, 7, 1003-1008). Membrane samples containing MelBSt (final protein concentration was 10 mg/mL) were incubated with a solubilization buffer (20 mM sodium phosphate, pH 7.5, 200 mM NaCl, 10% glycerol, 20 mM melibiose) and 1.5% (w/v) of DDM or NBMs (X-NBM-C10, D-NBM-C10, X-NBM-C11 or D-NBM-C11) at four different temperatures (0, 45, 55, 65° C.) for 90 minutes. To remove insoluble materials, following ultracentrifugation at 355,590 g using a Beckman Optimal™ MAX ultracentrifuge with TLA-100 rotor for 45 minutes at 4° C. was performed, and 20 μg of each protein sample was separated by SDS-16% PAGE, and then immunoblotted with a Penta-His-HRP antibody (Qiagen, Germantown, Md.). MelBSt was detected using SuperSignal West Pico chemiluminescent substrate by an ImageQuant LAS 4000 Biomolecular Imager (GE Health Care Life Science).
In general terms: Immunoblotting shows a protein as a band on a membrane.

On to `CCCCCCCCCCC(CCCCCCCCCC)(CO[C@@H]1O[C@H](CO)[C@@H](O[C@H]2O[C@H](CO)[C@@H](O)[C@H](O)[C@H]2O)[C@H](O)[C@H]1O)CO[C@@H]1O[C@H](CO)[C@@H](O[C@H]2O[C@H](CO)[C@@H](O)[C@H](O)[C@H]2O)[C@H](O)[C@H]1O` [MNG-3, reference compound], for which, in data set [1], the “Retention of monodispersed UapA-GFP peak after heating (FSEC)” value (shortened to “Retention of monodispersed UapA-GFP peak”) was “ineffective in preventing protein denaturation/aggregation”.
As to `CCCCCCCCCCCCO[C@@H]1O[C@H](CO)[C@@H](O[C@H]2O[C@H](CO)[C@@H](O)[C@H](O)[C@H]2O)[C@H](O)[C@H]1O` [DDM, n-dodecyl-β-D-maltopyranoside, reference compound], in data set [2], the “CMC” value is given as approximately 0.17 mM and the “CMC (wt %)” value is given as approximately 0.0087 wt %. Moreover, the “Rh (nm), hydrodynamic radius of micelles” value in data set [3] was 3.4 ± 0.03 nm. In data set [1], the “Retention of monodispersed UapA-GFP peak” value was “single monodispersed peak with relatively high intensity”. Moreover, the “Long-term ligand binding activity of β2AR ([3H]-DHA)” value in data set [4] (0.2% amphiphile, room temperature, 3 days (7 days for receptor extracted with the amphiphile)) is reported as “rapidly decreased over time”. In addition, the “Initial ligand binding activity of β2AR ([3H]-DHA)” value in data set [4] (DDM-purified receptor diluted to CMC+0.2 wt % amphiphile) is “excellent initial ligand binding activity”. Further, the “Particle dispersity of β2AR-Gs complex in negative stain EM” value at β2AR-Gs complex is on record as “aggregated particles”. Besides, the “MelBSt protein extraction (solubilization) efficiency” value in data set [5] (0° C. and 45° C., 90 minutes) is on record as “high MelBSt protein extraction efficiency”. Besides, in data set [5] (0° C., 90 minutes), the “MelBSt protein extraction efficiency” value is given as “higher protein extraction efficiency than NBMs”. In addition, in data set [5] (65° C., 90 minutes), the “Amount of solubilized MelBSt protein” value is listed as “no MelBSt protein solubilized in an aqueous solution was detectable”.
As for `CCCCCCCCCOCC1C2CC([C@H]1COCCCCCCCCC)[C@H](O[C@@H]1OC(CO)[C@@H](O[C@H]3OC(CO)[C@@H](O)C(O)C3O)C(O)C1O)C2O[C@@H]1OC(CO)[C@@H](O[C@H]2OC(CO)[C@@H](O)C(O)C2O)C(O)C1O` (stereo partly shown) [X-NBM-C9], in data set [2], the “CMC” value is approximately 0.010 mM and the “CMC (wt %)” value is recorded as approximately 0.0011 wt %. In addition, the “Rh (nm), hydrodynamic radius of micelles” value in data set [3] worked out at 3.7 ± 0.03 nm. Besides, the “Retention of monodispersed UapA-GFP peak” value in data set [1] is on record as “more or less comparable to DDM”.
In the same order, the values of `CCCCCCCCCCOCC1C2CC([C@H]1COCCCCCCCCCC)[C@H](O[C@@H]1OC(CO)[C@@H](O[C@H]3OC(CO)[C@@H](O)C(O)C3O)C(O)C1O)C2O[C@@H]1OC(CO)[C@@H](O[C@H]2OC(CO)[C@@H](O)C(O)C2O)C(O)C1O` (stereo partly shown) [X-NBM-C10] are approximately 0.007 mM, approximately 0.0008 wt %, 4.0 ± 0.02 nm and “more or less comparable to DDM”.
In the same order, the values of `CCCCCCCCCOCC1C2CC([C@@H]1COCCCCCCCCC)[C@H](O[C@@H]1OC(CO)[C@@H](O[C@H]3OC(CO)[C@@H](O)C(O)C3O)C(O)C1O)C2O[C@@H]1OC(CO)[C@@H](O[C@H]2OC(CO)[C@@H](O)C(O)C2O)C(O)C1O` (stereo partly drawn) [D-NBM-C9] are approximately 0.012 mM, approximately 0.0013 wt %, 3.3 ± 0.04 nm and “low recovery of monodispersed protein peak”.
Regarding `CCCCCCCCCCOCC1C2CC([C@@H]1COCCCCCCCCCC)[C@H](O[C@@H]1OC(CO)[C@@H](O[C@H]3OC(CO)[C@@H](O)C(O)C3O)C(O)C1O)C2O[C@@H]1OC(CO)[C@@H](O[C@H]2OC(CO)[C@@H](O)C(O)C2O)C(O)C1O` (stereo partly drawn) [D-NBM-C10], in data set [2], the “CMC” value was approximately 0.008 mM and the “CMC (wt %)” value is reported as approximately 0.0009 wt %. The “Rh (nm), hydrodynamic radius of micelles” value in data set [3] was 3.5 ± 0.03 nm. For the same compound, the “Retention of monodispersed UapA-GFP peak” value in data set [1] was “slightly lower effect than DDM”. The “MelBSt membrane protein stabilization activity (overall)” value in data set [5] (elevated temperature) is “excellent membrane protein stabilization activity”.
